# Patent US9012651B2, “TRPV3 modulators” (AbbVie Inc., priority 2011, dated 2015)
# Molecular target: human TRPV3 receptors (Homo sapiens (Human), UniProt Q8NET8)
# Experiment: Calcium flux assay (FLIPR TETRA), inhibition of the 2-APB response
# Assay type: cell-based
# Conditions: recombinant HEK293 cells stably expressing TRPV3, Calcium-4 dye, 2-APB at its EC80
# Summary of the method: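 HEK293 cells stably expressing human and mouse TRPV3, plated the day before and dye-loaded 90-120 min in the dark, read on FLIPR Tetra. Peak fluorescence increase over baseline was expressed as percent of the maximal 2-APB response without compound.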
# Sequence of human TRPV3 receptors (Q8NET8 whole entry): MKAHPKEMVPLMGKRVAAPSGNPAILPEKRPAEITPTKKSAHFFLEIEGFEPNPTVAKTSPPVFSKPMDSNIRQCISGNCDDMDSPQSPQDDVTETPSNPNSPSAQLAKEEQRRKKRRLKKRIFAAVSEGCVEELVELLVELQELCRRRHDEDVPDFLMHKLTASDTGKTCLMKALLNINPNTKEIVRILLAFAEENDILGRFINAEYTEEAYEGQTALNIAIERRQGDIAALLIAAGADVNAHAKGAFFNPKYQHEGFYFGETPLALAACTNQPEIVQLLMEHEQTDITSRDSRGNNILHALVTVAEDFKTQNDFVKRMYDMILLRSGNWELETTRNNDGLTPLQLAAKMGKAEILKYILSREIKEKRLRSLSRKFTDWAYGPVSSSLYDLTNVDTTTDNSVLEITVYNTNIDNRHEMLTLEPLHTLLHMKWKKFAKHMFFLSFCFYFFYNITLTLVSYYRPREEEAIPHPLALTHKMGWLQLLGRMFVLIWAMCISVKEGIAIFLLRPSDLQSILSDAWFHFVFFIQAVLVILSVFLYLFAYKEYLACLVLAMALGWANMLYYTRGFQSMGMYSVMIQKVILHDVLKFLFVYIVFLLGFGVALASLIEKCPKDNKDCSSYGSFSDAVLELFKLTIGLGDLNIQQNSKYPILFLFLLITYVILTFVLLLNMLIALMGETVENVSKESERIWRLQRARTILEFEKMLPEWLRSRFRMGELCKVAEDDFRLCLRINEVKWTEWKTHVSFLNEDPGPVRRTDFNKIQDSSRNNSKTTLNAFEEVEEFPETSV
row,Structure (SMILES),IC50 [nM]
1,"CC(C)[C@H](CO)NCc1nc(C2CCC(C(C)(C)C)CC2)ccc1F (stereo partly drawn) [Example 213, (2R)-2-({[6-(4-tert-butylcyclohexyl)-3-fluoropyridin-2-yl]methyl}amino)-3-methylbutan-1-ol]",790
2,"CC(C)[C@H](CO)NCc1nc(C2CCC3(CC2)OCCO3)ccc1F [Example 214, (2R)-2-({[6-(1,4-dioxaspiro[4.5]dec-8-yl)-3-fluoropyridin-2-yl]methyl}amino)-3-methylbutan-1-ol]",8280
3,"CC(C)[C@H](CO)NCc1nc(C2CCCC3(C2)OCCO3)ccc1F (stereo partly drawn) [Example 215, (2R)-2-({[6-(1,4-dioxaspiro[4.5]dec-7-yl)-3-fluoropyridin-2-yl]methyl}amino)-3-methylbutan-1-ol]",5670
4,"CC(C)[C@H](CO)NCc1nc(C2CCC(C(F)(F)F)CC2)ccc1F (stereo partly drawn) [Example 216, (2R)-2-[({3-fluoro-6-[4-(trifluoromethyl)cyclohexyl]pyridin-2-yl}methyl)amino]-3-methylbutan-1-ol]",310
5,"CC(C)[C@H](CO)NCc1nc(C2CCc3ccccc3C2)ccc1F (stereo partly drawn) [Example 217, (2R)-2-({[3-fluoro-6-(1,2,3,4-tetrahydronaphthalen-2-yl)pyridin-2-yl]methyl}amino)-3-methylbutan-1-ol]",350
6,"CC(C)[C@H](CO)NCc1nc(C2CCCOC2)ccc1F (stereo partly drawn) [Example 218, (2R)-2-({[3-fluoro-6-(tetrahydro-2H-pyran-3-yl)pyridin-2-yl]methyl}amino)-3-methylbutan-1-ol]",> 20000
7,"CC(C)[C@H](CO)NCc1nc(C2CCCN(C(=O)OC(C)(C)C)C2)ccc1F (stereo partly drawn) [Example 219, tert-butyl 3-[5-fluoro-6-({[(2R)-1-hydroxy-3-methylbutan-2-yl]amino}methyl)pyridin-2-yl]piperidine-1-carboxylate]",660
8,"CC(C)[C@H](CO)NCc1nc(C2CCCC2)ccc1F [Example 220, (2R)-2-{[(6-cyclopentyl-3-fluoropyridin-2-yl)methyl]amino}-3-methylbutan-1-ol]",480
9,"CC(C)[C@H](CO)NCc1nc(C2=CCC(C(F)(F)F)CC2)ccc1F (stereo partly drawn) [Example 223, (2R)-2-[({3-fluoro-6-[4-(trifluoromethyl)cyclohex-1-en-1-yl]pyridin-2-yl}methyl)amino]-3-methylbutan-1-ol]",80
10,"CC(C)[C@H](CO)NCc1nc(C2=CCC(F)(F)CC2)ccc1F [Example 224, (2R)-2-({[6-(4,4-difluorocyclohex-1-en-1-yl)-3-fluoropyridin-2-yl]methyl}amino)-3-methylbutan-1-ol]",140
11,"CC(C)[C@H](CO)NCc1cccc(-c2ccccc2)n1 [Example 225, (2R)-3-methyl-2-{[(6-phenylpyridin-2-yl)methyl]amino}butan-1-ol]",2920
12,"CC(C)[C@H](CO)NCc1cccc(-c2cccc([Si](C)(C)C)c2)n1 [Example 226, (2R)-3-methyl-2-[({6-[3-(trimethylsilyl)phenyl]pyridin-2-yl}methyl)amino]butan-1-ol]",600
13,"CC(C)[C@H](CO)NCc1cccc(-c2ccc([Si](C)(C)C(C)(C)C)s2)n1 [Example 227, (2R)-2-{[(6-{5-[tert-butyl(dimethyl)silyl]thiophen-2-yl}pyridin-2-yl)methyl]amino}-3-methylbutan-1-ol]",1800
14,"CC(C)[C@H](CO)NCc1nc(-c2ccc(F)c(F)c2)ccc1F [Example 228, (2R)-2-({[6-(3,4-difluorophenyl)-3-fluoropyridin-2-yl]methyl}amino)-3-methylbutan-1-ol]",140
15,"CC(C)[C@H](CO)NCc1nc(N2CCC(F)(F)CC2)ncc1F [Example 231, (2R)-2-({[2-(4,4-difluoropiperidin-1-yl)-5-fluoropyrimidin-4-yl]methyl}amino)-3-methylbutan-1-ol]",1530
16,"CC(C)[C@H](CO)NCc1nc(/C=C/c2cccc(F)c2)ccc1F [Example 233, (2R)-2-[({3-fluoro-6-[(E)-2-(3-fluorophenyl)ethenyl]pyridin-2-yl}methyl)amino]-3-methylbutan-1-ol]",380
